The source of these data is patent US20260103458A1, “Inhibitors of CDK8 and CDK19” (University of Dundee, priority 2022, published 2026).

The structures appear in SMILES notation.

One assay concerns the target T1, CDK8 (Homo sapiens, UniProt P49336).
T1 construct: made in house; host or cells: E. coli BL21-derived host (T7 phage display) or HEK-293 cells
Nature of the assay: Kinase competition binding assay (Kd, qPCR readout), CDK8. The settings on record: in vitro binding; 11-point 3-fold dilution series; read-out: pKd (CDK8) (converted). Here is the method: (§1) Compounds 1 to 11 were tested for their in vitro binding activity against CDK8 and CDK19.
(§2) Kinase assays: Kinase-tagged T7 phage strains were prepared in an E. coli host derived from the BL21 strain. E. coli were grown to log-phase and infected with T7 phage and incubated with shaking at 32° C. until lysis. The lysates were centrifuged and filtered to remove cell debris. The remaining kinases were produced in HEK-293 cells and subsequently tagged with DNA for qPCR detection. Streptavidin-coated magnetic beads were treated with biotinylated small molecule ligands for 30 minutes at room temperature to generate affinity resins for kinase assays. The liganded beads were blocked with excess biotin and washed with blocking buffer (SeaBlock (Pierce), 1% BSA, 0.05% Tween 20, 1 mM DTT) to remove unbound ligand and to reduce non-specific binding. Binding reactions were assembled by combining kinases, liganded affinity beads, and test compounds in 1× binding buffer (20% SeaBlock, 0.17×PBS, 0.05% Tween 20, 6 mM DTT). Test compounds were prepared as 111× stocks in 100% DMSO. Kds were determined using an 11-point 3-fold compound dilution series with three DMSO control points. All compounds for Kd measurements are distributed by acoustic transfer (non-contact dispensing) in 100% DMSO. The compounds were then diluted directly into the assays such that the final concentration of DMSO was 0.9%. All reactions performed in polypropylene 384-well plate. Each was a final volume of 0.02 ml. The assay plates were incubated at room temperature with shaking for 1 hour and the affinity beads were washed with wash buffer (1×PBS, 0.05% Tween 20). The beads were then re-suspended in elution buffer (1×PBS, 0.05% Tween 20, 0.5 μM nonbiotinylated affinity ligand) and incubated at room temperature with shaking for 30 minutes. The kinase concentration in the eluates was measured by qPCR.
(§3) Compound handling: An 11-point 3-fold serial dilution of each test compound was prepared in 100% DMSO at 100× final test concentration and subsequently diluted to 1× in the assay (final DMSO concentration=1%). Most Kds were determined using a compound top concentration=30,000 nM. If the initial Kd determined was <0.5 nM (the lowest concentration tested), the measurement was repeated with a serial dilution starting at a lower top concentration.
(§4) Binding constants: Binding constants (Kds) were calculated with a standard dose-response curve using the Hill equation: […]
(§5) The Hill Slope was set to −1.
(§6) Curves were fitted using a non-linear least square fit with the Levenberg-Marquardt algorithm.
On the technique in general: Real-time PCR tracks product formation cycle by cycle.

For a further assay, the target named is T2, CDK19 (Homo sapiens, UniProt Q9BWU1).
T2 construct: made in house; host or cells: E. coli BL21-derived host (T7 phage display) or HEK-293 cells
T2 sequence (Q9BWU1 whole entry): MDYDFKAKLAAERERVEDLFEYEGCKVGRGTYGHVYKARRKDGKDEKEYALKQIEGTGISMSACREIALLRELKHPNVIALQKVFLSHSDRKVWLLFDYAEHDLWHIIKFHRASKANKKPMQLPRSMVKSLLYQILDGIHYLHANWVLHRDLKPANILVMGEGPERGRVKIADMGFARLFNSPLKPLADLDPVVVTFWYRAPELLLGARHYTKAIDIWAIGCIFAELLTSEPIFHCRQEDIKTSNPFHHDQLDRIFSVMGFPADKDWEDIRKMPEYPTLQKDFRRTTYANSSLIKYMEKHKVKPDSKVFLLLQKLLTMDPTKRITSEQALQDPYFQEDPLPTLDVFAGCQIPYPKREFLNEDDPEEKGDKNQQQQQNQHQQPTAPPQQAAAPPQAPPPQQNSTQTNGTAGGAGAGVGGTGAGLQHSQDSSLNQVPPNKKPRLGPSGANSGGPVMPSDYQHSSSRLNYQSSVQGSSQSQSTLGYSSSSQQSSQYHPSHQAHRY
Description: Kinase competition binding assay (Kd, qPCR readout), CDK19. As to conditions: in vitro binding; 11-point 3-fold dilution series; read-out: pKd (CDK19) (converted). Here is the method:
as §1, §2, §3, §4, §5, §6

T1 sequence (P49336 whole entry): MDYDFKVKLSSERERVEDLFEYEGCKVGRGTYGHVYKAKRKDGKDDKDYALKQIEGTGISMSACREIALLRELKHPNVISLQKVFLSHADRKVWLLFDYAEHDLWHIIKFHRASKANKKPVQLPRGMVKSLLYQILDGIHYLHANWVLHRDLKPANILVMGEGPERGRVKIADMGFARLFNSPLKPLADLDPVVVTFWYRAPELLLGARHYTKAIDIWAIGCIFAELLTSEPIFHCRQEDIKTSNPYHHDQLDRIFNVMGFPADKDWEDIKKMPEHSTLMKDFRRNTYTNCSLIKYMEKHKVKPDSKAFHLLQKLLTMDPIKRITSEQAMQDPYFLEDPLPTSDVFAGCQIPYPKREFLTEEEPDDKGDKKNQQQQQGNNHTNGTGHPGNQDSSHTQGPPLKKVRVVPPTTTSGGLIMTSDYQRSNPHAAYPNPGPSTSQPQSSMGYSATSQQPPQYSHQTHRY

As to `CNC1CCN(c2snc3ccccc23)CC1` [Compound 1, 1-(benzo[c]isothiazol-3-yl)-N-methylpiperidin-4-amine], the Kd at CDK8 and at CDK19 was 31600 nM throughout.

Consider `Cn1cnc(C(=O)NC2CCN(c3snc4ccc(F)cc34)CC2)c1` [Compound 4, N-(1-(5-fluorobenzo[c]isothiazol-3-yl)piperidin-4-yl)-1-methyl-1H-imidazole-4-carboxamide], for which the Kd at CDK8 was 63.1 nM; on CDK19 it was 50.1 nM.

On to `CC(=O)NC1CCN(c2snc3ccccc23)CC1` [Compound 2, N-(1-(benzo[c]isothiazol-3-yl)piperidin-4-yl)acetamide], for which the Kd at CDK8 was 10000 nM; on CDK19, 6310 nM.

For `CN(C)C(=O)Cn1cnc(C(=O)NC2CCN(c3snc4ccc(F)cc34)CC2)c1` [Compound 8, 1-(2-(dimethylamino)-2-oxoethyl)-N-(1-(5-fluorobenzo[c]isothiazol-3-yl)piperidin-4-yl)-1H-imidazole-4-carboxamide], the values for the Kd at CDK8 and on CDK19 were 501 nM and 316 nM, respectively.

For the molecule `O=C(NC1CCN(c2snc3ccccc23)CC1)c1cn(Cc2ncccn2)cn1` [Compound 11, N-(1-(benzo[c]isothiazol-3-yl)piperidin-4-yl)-1-(pyrimidin-2-ylmethyl)-1H-imidazole-4-carboxamide], the Kd on CDK8 is 501 nM; on CDK19, 100 nM.

In the case of `O=C(NC1CCN(c2snc3ccc(F)cc23)CC1)c1cn(Cc2cnccn2)cn1` [Compound 6, N-(1-(5-fluorobenzo[c]isothiazol-3-yl)piperidin-4-yl)-1-(pyrazin-2-ylmethyl)-1H-imidazole-4-carboxamide], the Kd on CDK8 was 25.1 nM; on CDK19, 20 nM.

Regarding `CN(C)CCn1cnc(C(=O)NC2CCN(c3snc4ccccc34)CC2)c1` [Compound 9, N-(1-(benzo[c]isothiazol-3-yl)piperidin-4-yl)-1-(2-(dimethylamino)ethyl)-1H-imidazole-4-carboxamide], the Kd on CDK8 was 3980 nM; on CDK19, 1260 nM.

Regarding `O=C(NC1CCN(c2snc3ccccc23)CC1)c1cn(CC2COC2)cn1` [Compound 10, N-(1-(benzo[c]isothiazol-3-yl)piperidin-4-yl)-1-(oxetan-3-ylmethyl)-1H-imidazole-4-carboxamide], the Kd at CDK8 was 316 nM; on CDK19, 100 nM.

As for `CN(C)C(=O)Cn1cnc(C(=O)NC2CCN(c3snc4ccccc34)CC2)c1` [Compound 7, N-(1-(benzo[c]isothiazol-3-yl)piperidin-4-yl)-1-(2-(dimethylamino)-2-oxoethyl)-1H-imidazole-4-carboxamide], the Kd on CDK8 is 631 nM; on CDK19, 200 nM.

Regarding `Cn1cnc(C(=O)NC2CCN(c3snc4ccccc34)CC2)c1` [Compound 3, N-(1-(benzo[c]isothiazol-3-yl)piperidin-4-yl)-1-methyl-1H-imidazole-4-carboxamide], the Kd at CDK8 was 398 nM; on CDK19, 158 nM.

Consider `O=C(NC1CCN(c2snc3ccccc23)CC1)c1cn(Cc2cnccn2)cn1` [Compound 5, N-(1-(benzo[c]isothiazol-3-yl)piperidin-4-yl)-1-(pyrazin-2-ylmethyl)-1H-imidazole-4-carboxamide], for which the Kd at CDK8 is 200 nM; at CDK19, 79.4 nM.
